{"source": "patent US20160333063A1", "about": "“SOLUBLE HIGH MOLECULAR WEIGHT (HMW) TAU SPECIES AND APPLICATIONS THEREOF” (THE GENERAL HOSPITAL CORPORATION, priority 2013, published 2016)", "type_in_all_cases": "cell-based, mouse", "key": {"[1]": {"system": "caspase 3", "assay": "Western blot of cleaved caspase 3 in treated primary cortical neurons", "protocol": "(§1) Treatment of neuronal cultures. Wild-type (from CD1 mice), Tau−/−, Tau+/−, and Tau+/+ cortical neurons were cultured in standard NB/B27 serum-free medium, and, at 14 DIV, the medium was replaced with diluted 1:3 CM from TgCM, corresponding to 4 nM of Aβ, or WtCM (0.16 nM of murine Aβ40) and further incubated for 24 hrs. To induce apoptosis, cultures were treated with staurosporine (Enzo Life Sciences) at a final concentration of 1 μM and were harvested 4 hours after treatment. In zVAD-FMK (Sigma Aldrich) experiments, 20 μM of the inhibitor was applied to cultures 20 minutes prior to exposure to WtCM, TgCM, or STS. To inhibit calcineurin, 1 μM FK506 (Enzo Life Sciences) was applied 20 minutes prior to exposure to WtCM, TgCM or STS. Media was then aspirated and RIPA buffer with phosphatase and protease inhibitors was added to each well. Cells were scraped to prepare lysates for Western blots.\nWestern Blot. Protein lysates were boiled in sample buffer consisting of LDS Sample Buffer and reducing Agent, resolved on 4%-12% Bis-Tris polyacrylamide precast gels in a MES-SDS running buffer containing antioxidant. For most analyses, 20 μg/lane were loaded. Gels were transferred onto nitrocellulose membranes (Whatman) in transfer buffer containing 20% methanol. Blots were blocked in Odyssey blocking buffer (Li-Cor biosciences), followed by incubation with primary antibodies: mouse β-actin (Sigma; 1:10,000); rabbit cleaved caspase 3 (Cell Signaling; 1:1,000); rabbit caspase 3 (Cell Signaling; 1:1,000); mouse TauC3 (courtesy of Dr Lester Binder, 1:300); rabbit polyclonal Total Tau (Dako; 1:10,000), rabbit PSD95 (1:1,000; Cell Signaling), rabbit cleaved caspase 9 (1:1,000; Cell Signaling), mouse caspase 9 (1:1,000; Cell Signaling), rabbit pBAD (1:1,000; Cell Signaling), rabbit BAD (1:1,000; Cell Signaling), VDAC (1:1,000; Cell Signaling), mouse cytochrome c (1:1,000; BD Pharmingen), mouse BAX (1:1,000; Santa Cruz), rabbit cleaved PARP (1:1,000; Cell Signaling), rabbit PARP (1:1,000; Cell Signaling). […]"}, "[2]": {"system": "poly (ADP-ribose) polymerase (PARP)", "assay": "Western blot of cleaved PARP", "conditions": "TgCM 24 hrs; STS 6 hours", "protocol": "as §1, with “To induce apoptosis, cultures were treated with staurosporine (Enzo Life Sciences) at a final concentration of 1 μM and were harvested 4 hours after treatment.” left out\n(§2) Western Blot. Protein lysates were boiled in sample buffer consisting of LDS Sample Buffer and reducing Agent, resolved on 4%-12% Bis-Tris polyacrylamide precast gels in a MES-SDS running buffer containing antioxidant. For most analyses, 20 μg/lane were loaded. Gels were transferred onto nitrocellulose membranes (Whatman) in transfer buffer containing 20% methanol. […]"}, "[3]": {"system": "primary neuronal cultures", "assay": "ToxiLight BioAssay for cell death", "protocol": "ToxiLight BioAssay. Toxicity assays were conducted in medium collected from wild-type, Tau+/− and Tau−/− neurons plated in 96 well plates at 15 DIV using the ToxiLight BioAssay kit (Lonza, Rockland, Me.). Preparation of cell extracts and the cytotoxicity assay were performed according to manufacturer protocols. After centrifugation, 50 μl samples per well were transferred on an opaque white microtitre plate. To each well, 100 μl of the adenylate kinase detection reagent was added and the plate was incubated for 5 min at room temperature. After 5 min, luminescence was measured in the Wallac plate reader. Results are expressed as arbitrary relative light units (AU). To achieve 100% cell lysis (positive control) neurons were treated with 10% triton-X-100. […] Neurons for Toxilight assays were plated in 96 well plates using 3 wells per condition in duplicate across four separate culture experiments."}, "[4]": {"system": "PSD95", "assay": "Western blot of PSD95", "conditions": "co-treated with inhibitor", "protocol": "as §1, §2"}, "[5]": {"system": "BAD", "assay": "Western blot of phosphorylated BAD in treated primary cortical neurons", "conditions": "TgCM treated cultures, inhibitor or Aβ immunodepletion", "protocol": "as §1, §2"}, "[6]": {"system": "caspase 9", "assay": "Western blot of cleaved caspase 9 in treated primary cortical neurons", "conditions": "TgCM treated cultures, inhibitor or Aβ immunodepletion", "protocol": "as §1, §2"}, "[7]": {"system": "cytochrome c", "assay": "Western blot of cytochrome c in cytosolic fraction and mitochondrial pellet", "conditions": "TgCM treated cultures plus inhibitor", "protocol": "as §1\nMitochondria Isolations. Mitochondria were isolated from neurons plated in 10 cm dishes treated with WtCM and TgCM and purified by centrifugation as previously described (Ofengeim et al., 2012). […] The protein concentration was determined by BCA assay (Thermo Scientific) in all fractions and this concentration used for loading gels for western blot analysis. […]"}, "[8]": {"system": "tau cleaved at Asp421 (TauC3)", "assay": "Western blot of tau cleaved at Asp421 in treated primary cortical neurons", "protocol": "as §1, §2"}, "[9]": {"system": "GFP transfected neurons", "assay": "Spine density of GFP transfected neurons", "protocol": "Analysis of spine density and spine morphology. Cultured neurons plated in 35 mm glass-bottomed dishes (MatTek) were transfected with green fluorescent protein (GFP) (Clontech) at 7 DIV and imaged at 15 DIV. High-resolution digital images were taken using a Zeiss LSM510 confocal microscope with a 25× water-immersion objective lens (digital zoom=3-5), and excitation laser at 488 nm. Images were analyzed with NeuronStudio software (CNIC, Mount Sinai School of Medicine). Spine density was defined as the number of spines per micrometer of dendrite length according previously published protocols (Wu et al., 2010) with modifications. Dendritic spine densities were calculated from 30 to 40 neurons per condition across four separate culture experiments. For each condition, measurements of spine densities were averaged per neuron; the means from multiple neurons were then averaged to obtain the mean±s.e.m. for the population of neurons."}, "[10]": {"conditions": "STS 1 μM plus caspase inhibition"}, "[11]": {"conditions": "TgCM (4 nM Aβ) 24 hrs, inhibitor applied 20 minutes prior"}}, "note": "Where a SMILES comes first, the peptide text is derived from it. The star is where a group is joined. Cbz = O=C(OCc1ccccc1)*; CH2F = FC*", "data": [{"molecule": "C=CC[C@@H]1/C=C(\\C)C[C@H](C)C[C@H](OC)[C@H]2O[C@@](O)(C(=O)C(=O)N3CCCC[C@H]3C(=O)O[C@H](/C(C)=C/[C@@H]3CC[C@@H](O)[C@H](OC)C3)[C@H](C)[C@@H](O)CC1=O)[C@H](C)C[C@@H]2OC", "note": "[FK506]", "values": [{"measurement": "caspase 3 activation, tau cleavage, caspase 9 activation and BAD dephosphorylation in WtCM treated cultures", "setting": "[1]; WtCM plus inhibitor", "value": "no effect"}]}, {"molecule": "CN[C@@H]1C[C@H]2O[C@@](C)([C@@H]1OC)n1c3ccccc3c3c4c(c5c6ccccc6n2c5c31)C(=O)NC4", "note": "[STS, staurosporine]", "values": [{"measurement": "cleaved PARP", "setting": "[2]", "value": "induced PARP cleavage"}, {"measurement": "cell death (release of adenylate kinase)", "setting": "[3]; compared to control", "value": "cell death was induced"}]}, {"molecule": "COC(=O)C[C@H](NC(=O)[C@H](C)NC(=O)[C@@H](NC(=O)OCc1ccccc1)C(C)C)C(=O)CF", "note": "[zVAD-FMK] (Cbz-Val-Ala-Asp(OMe)-CH2F)", "values": [{"measurement": "PSD95 levels in neurons exposed to TgCM", "setting": "[4]", "value": "preserved"}, {"measurement": "TgCM-induced dephosphorylation of BAD", "setting": "[5]", "value": "did not prevent dephosphorylation of BAD"}, {"measurement": "Aβ-induced caspase 9 activation", "setting": "[6]", "value": "blocked"}, {"measurement": "levels of cytochrome c in the cytosol or mitochondrial pellet", "setting": "[7]", "value": "did not alter levels of cytochrome c"}, {"measurement": "STS-induced cell death", "setting": "[3]; STS plus inhibitor", "value": "blocked"}, {"measurement": "tau cleavage in STS treated cells", "setting": "[8]; [10]", "value": "reduced tau cleavage"}, {"measurement": "TauC3 levels / tau cleavage in TgCM exposed neurons", "setting": "[8]; [11]", "value": "no increase"}, {"measurement": "caspase 3 activation in STS treated cells", "setting": "[1]; [10]", "value": "reduced activation of caspase 3"}, {"measurement": "caspase 3 activation in TgCM exposed neurons", "setting": "[1]; [11]", "value": "no increase"}, {"measurement": "spine loss triggered by TgCM", "setting": "[9]; TgCM treated neurons plus inhibitor", "value": "fully blocked the spine loss"}, {"measurement": "spine density in WtCM exposed neurons", "setting": "[9]; WtCM plus inhibitor", "value": "significant increase in spine density"}]}]}
